Source: publication PMC7932537, “Quantitative profiling of protease specificity” (PLoS Computational Biology, 2021)

Columns and labels:
Assay type in all cases: biochemical, human
[1] = system: MMP-9; experiment: N-terminomic (TMT) analysis of MMP-treated HEK293 secretome: isotopic enrichment of novel N-termini; settings: for isotopic enrichment (log2(ratio)): MMP9 cleavages in HEK293 cell proteins, determined by LC-MS/MS, log2(ratio) range (>3σ, 2σ-3σ, 1σ-2σ)
Procedure: (§1) This was done to achieve a reasonable compromise between the false positive and false negative rates based on the statistical model developed by the authors. […] (See Methods for details).
(§2) HEK293 cells were seeded in 150-mm tissue culture dishes (Corning) and grown to confluence. The confluent cultures were washed with PBS several times to remove serum proteins and kept in serum-free DMEM supplemented with 1 μM GM6001 for 72 hours at 37 C, 5% CO2. The conditioned media was centrifuged at 10,000 x g for 30 minutes at 4 C and concentrated ~100-fold using Centricon Plus-70 (AMD Millipore) 3-kDa m.w. cut-off ultrafilter, and the buffer was exchanged to 50 mM HEPES pH 7.0 containing 150 mM NaCl and 10 mM CaCl2 (Reaction Buffer) using a PD-10 desalting column (GE Healthcare). Aliquots containing 240 μg total protein were incubated at 37 C in the presence of 750 nM MMP2 or 9 or the Reaction Buffer alone for 2 hours. Each reaction was carried out in duplicate. The reactions were stopped by addition of 20 mM EDTA and subjected to denaturation/reduction (4M Urea and 10 mM TCEP, 1 h, 22°C) and alkylation (20 mM iodoacetamide, 30 min, 22°C, in dark). […] The TMT-labeled samples were pooled together, and subjected to TCA precipitation (20% TCA, 16 h, 4°C). Each pellet was washed with -20°C acetone, recovered in 50 mM Tris-HCl pH 8.0, and then digested with trypsin/Lys-C (Promega) for 16 h at 37°C. Digestions were stopped with 0.2% TFA and centrifuged to remove insoluble material. The supernatants were then desalted using Sep-Pak C18 cartridge (50 mg), and then lyophilized.
(§3) Dried pooled sample was reconstituted in 20 mM ammonium formate pH ~10 and fractionated using a Waters Acquity BEH C18 column (2.1x 15 cm, 1.7 μm pore size) mounted on an M-Class Ultra Performance Liquid Chromatography (UPLC) system (Waters). […] A total of 32 fractions were collected and pooled in a non-contiguous manner into 16 total fractions. Pooled fractions were dried to completeness in a SpeedVac concentrator prior to mass spectrometry analysis.
(§4) Dried peptide fractions were reconstituted with 2% ACN-0.1% FA and analyzed by LC-MS/MS using a Proxeon EASY nanoLC system (Thermo Fisher Scientific) coupled to a Q-Exactive Plus mass spectrometer (Thermo Fisher Scientific). […] The mass spectrometer was operated in positive data-dependent acquisition mode. MS1 spectra were measured with a resolution of 70,000 (AGC target: 1e6; mass range: 350–1700 m/z).
(§5) The false discovery rate (FDR) filter for spectrum and protein identification was set to 1%. Carbamidomethylation of cysteines was searched as a fixed modification, while oxidation of methionines and N-terminal acetylation were searched as variable modifications. Enzyme was set to trypsin in a semispecific mode and a maximum of two missed cleavages was allowed for searching. To obtain quantification of the TMT-labeled N-termini, two independent searches were performed–one with TMT10plex MS2 N-terminal reporter quantification and the other for quantification of N-terminal and lysine sidechain.

[2] = system: MMP-2; experiment: as above
Procedure: as §1, §2, §3, §4, §5

[3] = system: MMP-9; experiment: Substrate phage display with NGS: relative probability (RP) of P3-P1' tetramer clusters; settings: RP of matching tetramer of the cleavage site; unique part of MMP9 selectome
[4] = system: MMP-2; experiment: as above; settings: RP of matching tetramer of the cleavage site; unique part of MMP9 selectome
[5] = HEK293 secretome, 750 nM MMP-9, 2 h, 37 C, TMT reporter ratio vs untreated control, LC-MS/MS, duplicate
[6] = HEK293 secretome, 750 nM MMP-2, 2 h, 37 C, TMT reporter ratio vs untreated control, LC-MS/MS, duplicate
[7] = MMP9, HEK293 proteins, common set of MMP2-9 selectome, LC-MS/MS
[8] = MS detected cleavage sequence, HEK293 proteins, common MMP2-9 selectome
[9] = MMP2 cleaved HEK293 proteins, common set of MMP2-9 selectome, LC-MS/MS
[10] = MS detected cleavage sequence, HEK293 proteins, unique part of MMP2 selectome

Substance	isotopic enrichment (log2(ratio)) (acc.to MMP9) [1, 5]	isotopic enrichment (log2(ratio)) [1]	isotopic enrichment (log2(ratio)) (acc.to MMP2) [2, 6]	relative probability (RP) (acc.to MMP9) [3]	relative probability (RP) (acc.to MMP2) [4]	isotopic enrichment (log2(ratio)) (acc.to MMP9) [1, 7]	isotopic enrichment (log2(ratio)) (acc.to MMP9) [1, 8]	isotopic enrichment (log2(ratio)) (acc.to MMP2) [2, 9]	isotopic enrichment (log2(ratio)) (acc.to MMP2) [2, 8]	isotopic enrichment (log2(ratio)) (acc.to MMP9) [1, 10]	isotopic enrichment (log2(ratio)) (acc.to MMP2) [2, 10]	isotopic enrichment (log2(ratio)) ([2]; MMP2 cleavages in HEK293 cell proteins, determined by LC-MS/MS, novel N-termini, sections log2(ratio) >3σ, 2σ-3σ, 1σ-2σ, RP above 4.5)
DSTMN-MLGGGG	1.618 log2(ratio)	1.618	0.8797 log2(ratio)	6.67	0	–	–	–	–	–	–	–
FCPMA-AHEEIC [MS detected cleavage site in Fibronectin (P02751)]	1.774 log2(ratio)	1.774	0.5261 log2(ratio)	16.94	3.68	–	–	–	–	–	–	–
GKPFK-IQVLVE [MS detected cleavage site in Galectin-3 (P17931)]	1.459 log2(ratio)	1.459	0.7991 log2(ratio)	34.84	1.13	–	–	–	–	–	–	–
KHIYY-ITGETK [MS detected cleavage site in Heat shock protein HSP 90-alpha (P07900)]	3.338 log2(ratio)	3.338	0.7225 log2(ratio)	14.54	0.69	–	–	–	–	–	–	–
KPPRL-VGGPMD [MS detected cleavage site in Cystatin-C (P01034)]	1.9855 log2(ratio)	1.9855	0.8156 log2(ratio)	7.12	0.07	–	–	–	–	–	–	–
KSIYY-ITGESK [MS detected cleavage site in Heat shock protein HSP 90-beta (P08238)]	3.962 log2(ratio)	3.962	0.3785 log2(ratio)	14.54	–	–	–	–	–	–	–	–
LPPDH-LNGVKL	2.07 log2(ratio)	2.07	1.257 log2(ratio)	13.06	2.08	–	–	–	–	–	–	–
NHIRY-VISQGN [MS detected cleavage site in Fibrillin-2 (P35556)]	3.134 log2(ratio)	3.134	1.367 log2(ratio)	10.4	0.96	–	–	–	–	–	–	–
QQPFA-SVMTDE [MS detected cleavage site in Semaphorin-3D (O95025)]	2.583 log2(ratio)	2.583	0.2016 log2(ratio)	24.05	3.01	–	–	–	–	–	–	–
SSPRH-SEAATA	–	4.654	–	–	–	4.654	4.654 log2(ratio)	3.599	3.599 log2(ratio)	–	–	–
STMNM-LGGGGS	–	–	–	–	–	–	–	–	–	0.9184 log2(ratio)	2.417 log2(ratio)	–
SYAGS-LAEPYE	–	–	–	–	–	0.9635	–	1.521	–	–	–	1.521 log2(ratio)
TDPSK-LDSGKE	–	2.9782	–	–	–	2.9782	2.9782 log2(ratio)	1.911	1.911 log2(ratio)	–	–	–
TGPRF-LISDRD	–	2.331	–	–	–	2.331	2.331 log2(ratio)	1.669	1.669 log2(ratio)	–	–	–
TQQAQ-LAAAAE	–	–	–	–	–	–	–	–	–	0.8319 log2(ratio)	2.74 log2(ratio)	–
TRPLA-VEVVTE	–	4.995	–	–	–	4.995	4.995 log2(ratio)	4.353	4.353 log2(ratio)	–	–	–
VAAKN-LQEAEE	–	2.192	–	–	–	2.192	2.192 log2(ratio)	1.485	1.485 log2(ratio)	–	–	–
VCPRG-YVTSTD	–	5.174	–	–	–	5.174	5.174 log2(ratio)	2.108	2.108 log2(ratio)	–	–	–
VLPVN-VTDYCQ	–	3.756	–	–	–	–	3.756 log2(ratio)	–	0.7225 log2(ratio)	–	–	–
VNPVL-LSGPEA	–	2.457	–	–	–	2.457	2.457 log2(ratio)	1.599	1.599 log2(ratio)	–	–	–
VTPAN-ASGIND	–	–	–	–	–	–	–	–	–	1.864 log2(ratio)	0.9486 log2(ratio)	–
VVPFG-VPASAT	–	2.014	–	–	–	–	2.014 log2(ratio)	–	0.189 log2(ratio)	–	–	–
VVPWP-HVEGVE [MS detected cleavage site in N-acetylgalactosaminyltransferase 7 (Q86SF2)]	3.516 log2(ratio)	3.516	1.195 log2(ratio)	15.08	0	–	–	–	–	–	–	–
YNPMA-LYGSVP	–	1.709	–	–	–	–	1.709 log2(ratio)	–	0.669 log2(ratio)	–	–	–
YRPVA-VALDTK	–	2.604	–	–	–	2.604	2.604 log2(ratio)	1.934	1.934 log2(ratio)	–	–	–
